Source: ChEMBL document CHEMBL5338817, “Discovery of Exceptionally Potent, Selective, and Efficacious PROTAC Degraders of CBP and p300 Proteins” (J Med Chem, 2023)

Legend:
RS4-11 [1] = experiment: Cytotoxicity against human RS4-11 cells assessed as maximum inhibition of cell growth incubated for 4 days by cellTiter-Glo assay relative to control; assay type: functional; settings: time 4 day
CREB-binding protein [2] = target: T1, CREB-binding protein (Homo sapiens, UniProt Q92793); experiment: Induction of CBP degradation in human RS4-11 cells assessed as maximal degradation incubated for 4 hrs by Western blot assay; assay type: cell-based
Target sequence in this assay (Q92793 2-2442 limits assumed): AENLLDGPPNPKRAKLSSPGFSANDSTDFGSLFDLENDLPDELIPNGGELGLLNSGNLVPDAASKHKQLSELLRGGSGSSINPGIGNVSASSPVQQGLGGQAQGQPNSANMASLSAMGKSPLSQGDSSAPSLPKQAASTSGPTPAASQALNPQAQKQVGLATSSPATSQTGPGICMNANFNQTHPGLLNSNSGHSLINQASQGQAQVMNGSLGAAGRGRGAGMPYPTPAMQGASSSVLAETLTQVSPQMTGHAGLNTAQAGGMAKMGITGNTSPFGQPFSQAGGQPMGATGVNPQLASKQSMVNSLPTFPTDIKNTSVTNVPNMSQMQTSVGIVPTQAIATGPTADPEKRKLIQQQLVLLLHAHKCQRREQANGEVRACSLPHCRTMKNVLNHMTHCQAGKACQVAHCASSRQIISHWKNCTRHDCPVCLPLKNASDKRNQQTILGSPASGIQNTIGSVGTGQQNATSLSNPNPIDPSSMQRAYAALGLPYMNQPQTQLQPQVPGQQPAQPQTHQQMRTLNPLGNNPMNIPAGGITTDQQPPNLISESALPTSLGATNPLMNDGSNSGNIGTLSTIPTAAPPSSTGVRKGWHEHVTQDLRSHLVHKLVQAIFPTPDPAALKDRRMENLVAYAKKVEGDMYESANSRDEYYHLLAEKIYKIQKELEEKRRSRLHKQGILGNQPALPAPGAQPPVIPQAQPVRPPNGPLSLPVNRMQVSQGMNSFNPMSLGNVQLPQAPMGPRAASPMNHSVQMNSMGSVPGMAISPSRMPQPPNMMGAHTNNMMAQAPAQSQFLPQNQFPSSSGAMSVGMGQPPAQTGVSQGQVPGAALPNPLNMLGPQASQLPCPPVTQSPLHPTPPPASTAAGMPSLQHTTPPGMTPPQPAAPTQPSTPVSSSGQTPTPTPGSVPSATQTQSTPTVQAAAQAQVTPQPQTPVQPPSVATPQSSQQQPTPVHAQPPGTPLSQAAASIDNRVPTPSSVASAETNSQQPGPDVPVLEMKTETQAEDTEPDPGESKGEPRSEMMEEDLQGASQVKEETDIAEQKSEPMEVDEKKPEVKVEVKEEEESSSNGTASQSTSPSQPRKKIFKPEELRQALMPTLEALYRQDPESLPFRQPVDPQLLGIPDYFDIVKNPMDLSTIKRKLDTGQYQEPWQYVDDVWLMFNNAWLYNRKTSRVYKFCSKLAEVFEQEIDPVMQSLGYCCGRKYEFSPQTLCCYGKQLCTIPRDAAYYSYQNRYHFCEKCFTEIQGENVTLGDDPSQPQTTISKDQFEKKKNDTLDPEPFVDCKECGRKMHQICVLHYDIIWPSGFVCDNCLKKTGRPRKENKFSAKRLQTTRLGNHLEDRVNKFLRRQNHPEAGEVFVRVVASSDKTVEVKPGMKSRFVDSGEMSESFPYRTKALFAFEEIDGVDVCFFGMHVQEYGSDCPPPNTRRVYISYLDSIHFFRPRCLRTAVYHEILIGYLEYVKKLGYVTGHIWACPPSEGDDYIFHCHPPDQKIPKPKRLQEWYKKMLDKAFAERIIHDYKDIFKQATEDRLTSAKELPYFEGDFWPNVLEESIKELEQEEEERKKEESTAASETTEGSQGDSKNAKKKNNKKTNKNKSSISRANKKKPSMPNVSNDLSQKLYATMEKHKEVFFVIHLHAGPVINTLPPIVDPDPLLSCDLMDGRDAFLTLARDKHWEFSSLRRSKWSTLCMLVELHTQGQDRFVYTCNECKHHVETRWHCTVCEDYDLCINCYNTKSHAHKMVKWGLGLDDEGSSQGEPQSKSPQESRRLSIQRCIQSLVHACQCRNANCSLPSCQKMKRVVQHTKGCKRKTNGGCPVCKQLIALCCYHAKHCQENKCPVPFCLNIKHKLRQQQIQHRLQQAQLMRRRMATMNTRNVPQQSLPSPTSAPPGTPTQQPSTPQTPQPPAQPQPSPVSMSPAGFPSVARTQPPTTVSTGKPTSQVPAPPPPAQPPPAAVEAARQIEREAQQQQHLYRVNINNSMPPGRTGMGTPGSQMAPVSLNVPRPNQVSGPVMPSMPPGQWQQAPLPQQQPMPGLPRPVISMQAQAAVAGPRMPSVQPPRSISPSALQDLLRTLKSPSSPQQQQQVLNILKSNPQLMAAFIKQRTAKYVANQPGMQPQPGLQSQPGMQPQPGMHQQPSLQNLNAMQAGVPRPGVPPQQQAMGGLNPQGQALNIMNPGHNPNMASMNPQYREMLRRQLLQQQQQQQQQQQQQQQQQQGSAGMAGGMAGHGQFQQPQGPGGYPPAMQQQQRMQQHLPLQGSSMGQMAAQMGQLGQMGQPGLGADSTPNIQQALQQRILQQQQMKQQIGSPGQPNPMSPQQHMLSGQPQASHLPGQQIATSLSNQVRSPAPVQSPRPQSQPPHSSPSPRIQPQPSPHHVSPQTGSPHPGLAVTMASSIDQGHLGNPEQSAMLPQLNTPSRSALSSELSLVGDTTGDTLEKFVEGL

[3] = target: T2, Histone acetyltransferase p300 (Homo sapiens, UniProt Q09472); experiment: Induction of p300 degradation in human RS4-11 cells assessed as maximal degradation incubated for 4 hrs by Western blot assay relative to control; assay type: cell-based
T2 sequence (Q09472 whole entry): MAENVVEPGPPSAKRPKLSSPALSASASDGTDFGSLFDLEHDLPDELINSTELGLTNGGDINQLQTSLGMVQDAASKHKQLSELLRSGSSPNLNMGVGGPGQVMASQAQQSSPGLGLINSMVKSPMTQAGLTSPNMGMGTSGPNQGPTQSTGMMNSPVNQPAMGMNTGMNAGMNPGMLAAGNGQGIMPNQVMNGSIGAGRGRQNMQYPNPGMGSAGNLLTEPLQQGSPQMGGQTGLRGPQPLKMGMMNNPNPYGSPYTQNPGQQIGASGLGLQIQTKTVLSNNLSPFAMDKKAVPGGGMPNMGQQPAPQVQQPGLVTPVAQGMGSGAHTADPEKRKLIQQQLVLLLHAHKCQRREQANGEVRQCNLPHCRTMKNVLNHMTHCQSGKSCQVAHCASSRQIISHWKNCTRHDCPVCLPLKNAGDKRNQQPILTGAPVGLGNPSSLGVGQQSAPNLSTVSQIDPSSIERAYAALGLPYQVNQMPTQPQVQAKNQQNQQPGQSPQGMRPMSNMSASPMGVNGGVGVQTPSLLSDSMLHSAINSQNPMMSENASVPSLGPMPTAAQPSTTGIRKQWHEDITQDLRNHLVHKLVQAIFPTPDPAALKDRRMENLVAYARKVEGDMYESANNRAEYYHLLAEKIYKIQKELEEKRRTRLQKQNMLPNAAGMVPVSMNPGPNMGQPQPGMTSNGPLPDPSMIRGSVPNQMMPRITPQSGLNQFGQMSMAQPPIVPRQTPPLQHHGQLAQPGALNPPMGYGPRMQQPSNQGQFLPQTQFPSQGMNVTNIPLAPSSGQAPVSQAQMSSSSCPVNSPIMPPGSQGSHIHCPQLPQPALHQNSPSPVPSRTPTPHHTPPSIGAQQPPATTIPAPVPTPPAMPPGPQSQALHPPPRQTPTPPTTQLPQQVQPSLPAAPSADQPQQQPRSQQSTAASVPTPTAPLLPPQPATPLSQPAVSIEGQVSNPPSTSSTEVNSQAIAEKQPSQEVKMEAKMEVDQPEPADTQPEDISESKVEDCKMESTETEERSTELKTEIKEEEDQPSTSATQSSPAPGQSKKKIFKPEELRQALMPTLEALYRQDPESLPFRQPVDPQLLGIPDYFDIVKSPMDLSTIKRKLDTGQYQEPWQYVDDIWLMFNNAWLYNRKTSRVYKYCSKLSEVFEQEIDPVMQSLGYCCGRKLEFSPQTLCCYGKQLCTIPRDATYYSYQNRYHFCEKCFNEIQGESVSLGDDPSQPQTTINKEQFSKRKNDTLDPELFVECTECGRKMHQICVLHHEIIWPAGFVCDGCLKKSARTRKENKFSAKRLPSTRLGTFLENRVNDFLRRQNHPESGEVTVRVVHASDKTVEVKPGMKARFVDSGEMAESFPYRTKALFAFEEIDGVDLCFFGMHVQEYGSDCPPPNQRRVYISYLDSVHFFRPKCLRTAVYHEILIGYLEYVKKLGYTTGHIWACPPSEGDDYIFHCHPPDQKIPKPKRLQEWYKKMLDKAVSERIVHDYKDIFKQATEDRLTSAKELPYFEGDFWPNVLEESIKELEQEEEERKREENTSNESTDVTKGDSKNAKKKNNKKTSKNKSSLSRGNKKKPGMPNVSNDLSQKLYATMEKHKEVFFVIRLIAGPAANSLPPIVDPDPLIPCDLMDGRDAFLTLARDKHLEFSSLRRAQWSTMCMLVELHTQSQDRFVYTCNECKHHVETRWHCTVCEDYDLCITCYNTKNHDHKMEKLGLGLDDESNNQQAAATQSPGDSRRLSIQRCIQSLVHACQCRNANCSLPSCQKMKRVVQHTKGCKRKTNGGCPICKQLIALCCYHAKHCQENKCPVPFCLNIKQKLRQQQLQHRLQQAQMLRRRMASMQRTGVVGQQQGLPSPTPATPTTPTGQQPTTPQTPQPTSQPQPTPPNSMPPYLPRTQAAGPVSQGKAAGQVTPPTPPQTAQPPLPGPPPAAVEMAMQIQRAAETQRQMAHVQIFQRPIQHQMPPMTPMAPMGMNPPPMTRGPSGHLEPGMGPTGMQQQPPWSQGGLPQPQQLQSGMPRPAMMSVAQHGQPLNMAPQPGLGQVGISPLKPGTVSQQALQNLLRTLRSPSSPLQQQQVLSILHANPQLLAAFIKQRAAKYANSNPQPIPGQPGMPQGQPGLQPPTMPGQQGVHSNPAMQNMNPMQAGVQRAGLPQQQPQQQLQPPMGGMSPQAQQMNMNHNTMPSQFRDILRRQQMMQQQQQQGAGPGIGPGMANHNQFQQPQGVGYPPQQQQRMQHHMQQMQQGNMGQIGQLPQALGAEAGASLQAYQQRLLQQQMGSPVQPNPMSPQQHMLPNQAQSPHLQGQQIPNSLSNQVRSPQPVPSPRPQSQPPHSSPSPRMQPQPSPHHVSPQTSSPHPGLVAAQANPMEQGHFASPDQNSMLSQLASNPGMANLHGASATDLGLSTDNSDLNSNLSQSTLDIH

CREB-binding protein [4] = target: T1, CREB-binding protein; experiment: Induction of CBP degradation in human RS4-11 cells incubated for 4 hrs by Western blot assay; assay type: cell-based
[5] = target: T2, Histone acetyltransferase p300; experiment: Induction of p300 degradation in human RS4-11 cells incubated for 4 hrs by Western blot assay; assay type: cell-based; settings: for DC50: rs4-11
RS4-11 [6] = experiment: Cytotoxicity against human RS4-11 cells assessed as inhibition of cell growth incubated for 4 days by cellTiter-Glo assay; assay type: functional, cell-based; settings: RS4-11, 96 h
MV4-11 = experiment: Cytotoxicity against human MV4-11 cells assessed as maximum inhibition of cell growth incubated for 4 days by cellTiter-Glo assay relative to control; assay type: functional; settings: time 4 day
MOLM-13 = experiment: Cytotoxicity against human MOLM-13 cells assessed as maximum inhibition of cell growth incubated for 4 days by cellTiter-Glo assay relative to control; assay type: functional; settings: time 4 day
HL-60 = experiment: Cytotoxicity against human HL-60 cells assessed as maximum inhibition of cell growth incubated for 4 days by cellTiter-Glo assay relative to control; assay type: functional; settings: time 4 day

Emax (CREB-binding protein [2])	Emax [3]	EC50 (CREB-binding protein [4])	EC50 [5]	DC50 [5]	Structure (SMILES)	Imax (RS4-11 [1])	IC50 (RS4-11 [6])	Imax (MV4-11)	Imax (MOLM-13)	Imax (HL-60)
99%	99%	0.2 nM	1.6 nM		CC(=O)N1CCc2c(c(-c3cccc4cc(-c5ccc(C(=O)N6CCN(c7cccc8c7C(=O)N(C7CCC(=O)NC7=O)C8=O)CC6)nc5)ncc34)nn2C2CCOCC2)C1 (stereo not given)	86%	0.6 nM			
80%	73%	1.1 nM		5.1 nM	CC(=O)N1CCc2c(c(-c3cccc4cc(-c5ccc(C(=O)NCCNc6ccc7c(c6)CN(C6CCC(=O)NC6=O)C7=O)nc5)ncc34)nn2C2CCOCC2)C1 (stereo not given)	>95%	0.1 nM			
99%	97%	0.2 nM	1.6 nM		CC(=O)N1CCc2c(c(-c3cccc4cc(-c5ccc(C(=O)NCCCCCCCCNc6cccc7c6C(=O)N(C6CCC(=O)NC6=O)C7=O)nc5)ncc34)nn2C2CCOCC2)C1 (stereo not given)	87%	1.5 nM			
70%	77%	1.3 nM	0.8 nM		CC(=O)N1CCc2c(c(-c3cccc4cc(-c5ccc(C(=O)NCCCCNc6cccc7c6C(=O)N(C6CCC(=O)NC6=O)C7=O)nc5)ncc34)nn2C2CCOCC2)C1 (stereo not given)	>95%	0.4 nM			
98%	95%	0.2 nM		1.8 nM	CC(=O)N1CCc2c(c(-c3cccc4cc(-c5ccc(C(=O)NCCCNc6cccc7c6CN(C6CCC(=O)NC6=O)C7=O)nc5)ncc34)nn2C2CCOCC2)C1 (stereo not given)	>95%	0.1 nM			
95%	99%	3.3 nM		0.3 nM	CC(=O)N1CCc2c(c(-c3cccc4cc(-c5ccc(C(=O)NCCCc6cccc7c6CN(C6CCC(=O)NC6=O)C7=O)nc5)ncc34)nn2C2CCOCC2)C1 (stereo not given)	95%	0.5 nM			
99%	95%	0.3 nM	1.1 nM		CC(=O)N1CCc2c(c(-c3cccc4cc(-c5ccc(C(=O)N6CC7(CC(Nc8cccc9c8C(=O)N(C8CCC(=O)NC8=O)C9=O)C7)C6)nc5)ncc34)nn2C2CCOCC2)C1 (stereo not given)	85%	11 nM			
96%	51%	1.7 nM	9.3 nM		CC(=O)N1CCc2c(c(-c3cccc4cc(-c5ccc(C(=O)N6CCC7(CC6)CC(Nc6cccc8c6C(=O)N(C6CCC(=O)NC6=O)C8=O)C7)nc5)ncc34)nn2C2CCOCC2)C1 (stereo not given)	71%	51 nM			
99%	99%	< 0.1 nM		0.3 nM	CC(=O)N1CCc2c(c(-c3cccc4cc(-c5ccc(C(=O)NCCCNc6ccc7c(c6)CN(C6CCC(=O)NC6=O)C7=O)nc5)ncc34)nn2C2CCOCC2)C1 (stereo not given)	>95%	0.1 nM			
81%	62%	4.8 nM	25 nM		CC(=O)N1CCc2c(c(-c3cccc4cc(-c5ccc(C(=O)N6CC7(CCC(Nc8cccc9c8C(=O)N(C8CCC(=O)NC8=O)C9=O)CC7)C6)nc5)ncc34)nn2C2CCOCC2)C1 (stereo not given)	75%	44 nM			
99%	99%	0.2 nM		0.1 nM	CC(=O)N1CCc2c(c(-c3cccc4cc(-c5ccc(C(=O)NCCCCCc6cccc7c6CN(C6CCC(=O)NC6=O)C7=O)nc5)ncc34)nn2C2CCOCC2)C1 (stereo not given)	>95%	0.2 nM			
					CNC(=O)c1ccc(-c2cc3cccc(-c4nn(C5CCOCC5)c5c4CN(C(C)=O)CC5)c3cn2)cn1	75%		94%	98%	99%
